This note sets out measurements from patent US9346786B2, “Pyrrolidine compounds” (Hoffmann-La Roche Inc., priority 2009, dated 2016).

Read-outs that look alike come from different tables or passages of the source.

The target in this assay is recombinant human NK3 receptor (Homo sapiens (Human), UniProt P29371). Put plainly: biochemical. The assay is classed as binding. Particulars: read-out: Data Ki (hNK-3 receptor affinity).
The mark [1] stands for this setting: [3H]SR142801, membranes of HEK293 cells transiently expressing recombinant human NK3 receptor.

recombinant human NK3 receptor, sequence (P29371 whole entry): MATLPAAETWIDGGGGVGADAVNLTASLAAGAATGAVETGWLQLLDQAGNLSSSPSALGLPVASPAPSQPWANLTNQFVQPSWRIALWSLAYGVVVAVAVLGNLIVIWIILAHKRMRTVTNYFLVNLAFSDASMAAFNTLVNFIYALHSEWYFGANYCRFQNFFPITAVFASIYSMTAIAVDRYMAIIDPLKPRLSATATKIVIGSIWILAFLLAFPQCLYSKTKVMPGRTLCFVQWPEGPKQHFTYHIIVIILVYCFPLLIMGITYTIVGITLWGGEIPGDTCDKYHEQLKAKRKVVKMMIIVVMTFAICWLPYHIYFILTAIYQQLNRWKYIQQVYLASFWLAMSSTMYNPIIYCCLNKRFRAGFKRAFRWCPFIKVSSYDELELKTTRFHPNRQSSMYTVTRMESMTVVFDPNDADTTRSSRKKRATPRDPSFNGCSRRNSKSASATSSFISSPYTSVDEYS

For the compound `CCN(C(=O)Oc1ccc(F)cc1)[C@@H]1CN(C(=O)C2CCN(C(=O)c3ccc(C#N)nc3)CC2)C[C@H]1c1ccc(Cl)c(F)c1` [Example 79, {(3S,4R)-4-(4-Chloro-3-fluoro-phenyl)-1-[1-(6-cyano-pyridine-3-carbonyl)-piperidine-4-carbonyl]-pyrrolidin-3-yl}-ethyl-carbamic acid 4-fluoro-phenyl ester], the Ki under setting [1] is 8 nM.

Regarding `CC(C)CN(C(=O)Oc1ccc(F)cc1)[C@@H]1CN(C(=O)C2CCN(C(=O)C3(C)CC3)CC2)C[C@H]1c1ccc(Cl)c(Cl)c1` (racemic) [Example 3, rac-{(3S,4R)-4-(3,4-Dichloro-phenyl)-1-[1-(1-methyl-cyclopropanecarbonyl)-piperidine-4-carbonyl]-pyrrolidin-3-yl}-isobutyl-carbamic acid 4-fluoro-phenyl ester], under setting [1], the Ki was found to be 276 nM.

With `CCN(C(=O)Oc1ccc(F)cc1)[C@@H]1CN(C(=O)C2CCN(c3ccc(S(C)(=O)=O)cn3)CC2)C[C@H]1c1ccc(F)cc1` [Example 37, Ethyl-[(3S,4R)-4-(4-fluoro-phenyl)-1-(5′-methanesulfonyl-3,4,5,6-tetrahydro-2H-[1,2′]bipyridinyl-4-carbonyl)-pyrrolidin-3-yl]-carbamic acid 4-fluoro-phenyl ester], the Ki under setting [1] came out at 8 nM.

Take `CCN(C(=O)Oc1ccc(F)cc1)[C@@H]1CN(C(=O)C2CCN(c3ccc(Cl)cn3)CC2)C[C@H]1c1ccc(F)c(F)c1` [Example 49, [(3S,4R)-1-(5′-Chloro-3,4,5,6-tetrahydro-2H-[1,2′]bipyridinyl-4-carbonyl)-4-(3,4-difluoro-phenyl)-pyrrolidin-3-yl]-ethyl-carbamic acid 4-fluoro-phenyl ester]: the Ki under setting [1] stood at 5 nM.

In the case of `CCN(C(=O)Oc1ccc(F)cc1)[C@@H]1CN(C(=O)C2CCN(C(=O)C3CCOC(C)(C)C3)CC2)C[C@H]1c1ccc(Cl)cc1` (stereo partly drawn) [Example 98, {(3S,4R)-4-(4-Chloro-phenyl)-1-[1-(2,2-dimethyl-tetrahydro-pyran-4-carbonyl)-piperidine-4-carbonyl]-pyrrolidin-3-yl}-ethyl-carbamic acid 4-fluoro-phenyl ester], the Ki under setting [1] turned out to be 4.7 nM.

Turning to `CCN(C(=O)Oc1ccc(F)cc1)[C@H]1CN(C(=O)C2CCN(c3ccc(C#N)cn3)CC2)C[C@@H]1c1ccc(Cl)cc1` [Example 22, [(3R,4S)-4-(4-Chloro-phenyl)-1-(5′-cyano-3,4,5,6-tetrahydro-2H-[1,2′]bipyridinyl-4-carbonyl)-pyrrolidin-3-yl]-ethyl-carbamic acid 4-fluoro-phenyl ester], under setting [1], the Ki is 25 nM.

Regarding `CCN(C(=O)Oc1ccc(F)cc1)[C@@H]1CN(C(=O)C2CCN(C(=O)CC#N)CC2)C[C@H]1c1ccc(Cl)cc1` [Example 93, {(3S,4R)-4-(4-Chloro-phenyl)-1-[1-(2-cyano-acetyl)-piperidine-4-carbonyl]-pyrrolidin-3-yl}-ethyl-carbamic acid 4-fluoro-phenyl ester], the Ki under setting [1] was determined as 7.1 nM.

As to `CCN(C(=O)Oc1ccc(F)cc1)[C@@H]1CN(C(=O)C2CCN(c3ccc(S(C)(=O)=O)cn3)CC2)C[C@H]1c1ccc(Cl)c(F)c1` [Example 63, [(3S,4R)-4-(4-Chloro-3-fluoro-phenyl)-1-(5′-methanesulfonyl-3,4,5,6-tetrahydro-2H-[1,2′]bipyridinyl-4-carbonyl)-pyrrolidin-3-yl]-ethyl-carbamic acid 4-fluoro-phenyl ester], the Ki under setting [1] is 0.7 nM.

As for `CCN(C(=O)Oc1ccc(F)cc1)[C@@H]1CN(C(=O)C2CCN(c3ccc(C#N)nc3)CC2)C[C@H]1c1ccc(F)c(F)c1` [Example 51, [(3S,4R)-1-(6′-Cyano-3,4,5,6-tetrahydro-2H-[1,3′]bipyridinyl-4-carbonyl)-4-(3,4-difluoro-phenyl)-pyrrolidin-3-yl]-ethyl-carbamic acid 4-fluoro-phenyl ester], under setting [1], the Ki was 2 nM.

Turning to `CC(C)N(C(=O)Oc1ccc(F)cc1)[C@@H]1CN(C(=O)C2CCN(c3ccc(C(F)(F)F)cn3)CC2)C[C@H]1c1ccc(Cl)cc1` [Example 25, [(3S,4R)-4-(4-Chloro-phenyl)-1-(5′-trifluoromethyl-3,4,5,6-tetrahydro-2H-[1,2′]bipyridinyl-4-carbonyl)-pyrrolidin-3-yl]-isopropyl-carbamic acid 4-fluoro-phenyl ester], the Ki under setting [1] amounted to 112 nM.

`CC(C)N(C(=O)Oc1ccc(F)cc1)[C@@H]1CN(C(=O)C2CCN(c3ccc(C#N)cn3)CC2)C[C@H]1c1ccc(Cl)cc1` [Example 23, [(3S,4R)-4-(4-Chloro-phenyl)-1-(5′-cyano-3,4,5,6-tetrahydro-2H-[1,2′]bipyridinyl-4-carbonyl)-pyrrolidin-3-yl]-isopropyl-carbamic acid 4-fluoro-phenyl ester]: under setting [1], the inhibitory constant (Ki) was 21 nM.

Take `CCN(C(=O)Oc1ccc(F)cc1)[C@@H]1CN(C(=O)C2CCN(c3ccc(C#N)nn3)CC2)C[C@H]1c1ccc(Cl)c(F)c1` [Example 57, {(3S,4R)-4-(4-Chloro-3-fluoro-phenyl)-1-[1-(6-cyano-pyridazin-3-yl)-piperidine-4-carbonyl]-pyrrolidin-3-yl}-ethyl-carbamic acid 4-fluoro-phenyl ester]: the Ki under setting [1] was 0.7 nM.

As for `CCN(C(=O)Oc1ccc(F)cc1)[C@@H]1CN(C(=O)C2CCN(C(=O)C3(C(F)(F)F)CC3)CC2)C[C@H]1c1ccc(Cl)c(F)c1` [Example 71, {(3S,4R)-4-(4-Chloro-3-fluoro-phenyl)-1-[1-(1-trifluoromethyl-cyclopropanecarbonyl)-piperidine-4-carbonyl]-pyrrolidin-3-yl}-ethyl-carbamic acid 4-fluoro-phenyl ester], the Ki stood at 4 nM.

Consider `CCN(C(=O)Oc1ccc(F)cc1)[C@@H]1CN(C(=O)C2CCN(C(=O)[C@@H]3CC(=O)N3)CC2)C[C@H]1c1ccc(F)c(F)c1` [Example 106, {(3S,4R)-4-(3,4-Difluoro-phenyl)-1-[1-((S)-4-oxo-azetidine-2-carbonyl)-piperidine-4-carbonyl]-pyrrolidin-3-yl}-ethyl-carbamic acid 4-fluoro-phenyl ester], for which the Ki under setting [1] came to 66 nM.

For the compound `CCN(C(=O)Oc1ccc(F)cc1)[C@@H]1CN(C(=O)C2CCN(C(=O)C3CCC(=O)NC3)CC2)C[C@H]1c1ccc(Cl)cc1` (stereo partly drawn) [Example 103, {(3S,4R)-4-(4-Chloro-phenyl)-1-[1-(6-oxo-piperidine-3-carbonyl)-piperidine-4-carbonyl]-pyrrolidin-3-yl}-ethyl-carbamic acid 4-fluoro-phenyl ester], the Ki was 32.6 nM.

As for `CCN(C(=O)Oc1ccc(F)cc1)[C@H]1CN(C(=O)C2CCN(c3cc(C#N)ccn3)CC2)C[C@@H]1c1ccc(Cl)cc1` [Example 9, [(3R,4S)-4-(4-Chloro-phenyl)-1-(4′-cyano-3,4,5,6-tetrahydro-2H-[1,2′]bipyridinyl-4-carbonyl)-pyrrolidin-3-yl]-ethyl-carbamic acid 4-fluoro-phenyl ester], the Ki came out at 138 nM.

With `CCN(C(=O)Oc1ccc(F)cc1)[C@H]1CN(C(=O)C2CCN(c3ccc(C(C)=O)cn3)CC2)C[C@@H]1c1ccc(Cl)cc1` [Example 8, [(3R,4S)-1-(5′-Acetyl-3,4,5,6-tetrahydro-2H-[1,2′]bipyridinyl-4-carbonyl)-4-(4-chloro-phenyl)-pyrrolidin-3-yl]-ethyl-carbamic acid 4-fluoro-phenyl ester], under setting [1], the Ki was determined as 55 nM.

With `CCN(C(=O)Oc1ccc(F)cc1)[C@@H]1CN(C(=O)C2CCN(c3ccc(S(C)(=O)=O)cn3)CC2)C[C@H]1c1ccc(F)c(F)c1` [Example 64, [(3S,4R)-4-(3,4-Difluoro-phenyl)-1-(5′-methanesulfonyl-3,4,5,6-tetrahydro-2H-[1,2′]bipyridinyl-4-carbonyl)-pyrrolidin-3-yl]-ethyl-carbamic acid 4-fluoro-phenyl ester], the Ki under setting [1] was determined as 5 nM.

On to `CCN(C(=O)Oc1ccc(F)cc1)[C@@H]1CN(C(=O)C2CCN(c3cnc(C#N)cn3)CC2)C[C@H]1c1ccc(Cl)cc1` [Example 17, {(3S,4R)-4-(4-Chloro-phenyl)-1-[1-(5-cyano-pyrazin-2-yl)-piperidine-4-carbonyl]-pyrrolidin-3-yl}-ethyl-carbamic acid 4-fluoro-phenyl ester], for which the Ki amounted to 2 nM.

With `CCN(C(=O)Oc1ccc(F)cc1)[C@@H]1CN(C(=O)C2CCN(C(=O)C3CCOC(C)(C)C3)CC2)C[C@H]1c1ccc(Cl)c(F)c1` (stereo partly drawn) [Example 73, {(3S,4R)-4-(4-Chloro-3-fluoro-phenyl)-1-[1-(2,2-dimethyl-tetrahydro-pyran-4-carbonyl)-piperidine-4-carbonyl]-pyrrolidin-3-yl}-ethyl-carbamic acid 4-fluoro-phenyl ester], the Ki was 3 nM.

Consider `CCN(C(=O)Oc1ccc(F)cc1)[C@@H]1CN(C(=O)C2CCN(c3ccc(C#N)nn3)CC2)C[C@H]1c1ccc(Cl)cc1` [Example 18, {(3S,4R)-4-(4-Chloro-phenyl)-1-[1-(6-cyano-pyridazin-3-yl)-piperidine-4-carbonyl]-pyrrolidin-3-yl}-ethyl-carbamic acid 4-fluoro-phenyl ester], for which the Ki under setting [1] came to 2 nM.

For the compound `CCN(C(=O)Oc1ccc(F)cc1)[C@@H]1CN(C(=O)C2CCN(c3ccc(C(C)=O)cn3)CC2)C[C@H]1c1ccc(Cl)cc1` [Example 14, [(3S,4R)-1-(5′-Acetyl-3,4,5,6-tetrahydro-2H-[1,2′]bipyridinyl-4-carbonyl)-4-(4-chloro-phenyl)-pyrrolidin-3-yl]-ethyl-carbamic acid 4-fluoro-phenyl ester], under setting [1], the Ki stood at 3 nM.

Take `CCN(C(=O)Oc1ccc(F)cc1)[C@@H]1CN(C(=O)C2CCN(C(=O)OC(C)(C)C)CC2)C[C@H]1c1ccc(Cl)c(F)c1` [Example 39, 4-{(3R,4S)-3-(4-Chloro-3-fluoro-phenyl)-4-[ethyl-(4-fluoro-phenoxycarbonyl)-amino]-pyrrolidine-1-carbonyl}-piperidine-1-carboxylic acid tert-butyl ester]: under setting [1], the Ki turned out to be 4 nM.

Regarding `CCN(C(=O)Oc1ccc(F)cc1)[C@@H]1CN(C(=O)C2CCN(c3ccc(C(F)(F)F)cn3)CC2)C[C@H]1c1ccc(F)c(Cl)c1` [Example 119, [(3S,4R)-4-(3-Chloro-4-fluoro-phenyl)-1-(5′-trifluoromethyl-3,4,5,6-tetrahydro-2H-[1,2′]bipyridinyl-4-carbonyl)-pyrrolidin-3-yl]-ethyl-carbamic acid 4-fluoro-phenyl ester], the Ki worked out at 3.7 nM.

In general, Ki refers to a dissociation constant, usually derived from enzyme kinetics or from competition with a known ligand.
